Drawing on PubChem BioAssay AID1117319 (Southern Research Institute, 2015), this text covers IC50 for 73 compounds.

Inconclusive results are not listed.

In this test the target is Virion infectivity factor (Human immunodeficiency virus type 1 group M subtype B (isolate BH10)) + Virion infectivity factor (Human immunodeficiency virus type 1 group M subtype B (isolate BRU/LAI)) + Virion infectivity factor (Human immunodeficiency virus type 1 group M subtype B (isolate PCV12)) + Virion infectivity factor (Human immunodeficiency virus type 1 group M subtype B (isolate HXB2)) + DNA dC->dU-editing enzyme APOBEC-3G (Homo sapiens) (UniProt P69720+P69721+P69722+P69723+Q9HC16). The test can be described thus: inhibitors of Vif binding to APOBEC3G peptide, primary screen, biochemical, TR-FRET, GST-Vif 1-94, biotin-A3G peptide, dose response retest (AID 1117319).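 Note: Vif residues 1-94 fused to GST binding biotinylated APOBEC3G peptide 110-148.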 For orientation: TR-FRET usually uses a lanthanide donor and a delayed reading to cut background.
Consider `O=C(Cc1cccs1)N/N=C/C=C/c1ccco1`, for which the IC50 is 3.68 µM.

In the case of `O=C(Nc1nc(-c2ccco2)c(-c2ccco2)s1)c1ccc(F)cc1F`, the IC50 is 85.4 µM. The figure for `O=C(O)CC1OCC=C2CN3CCC45C6=CC(=O)C(=O)C([N+](=O)[O-])=C6NC4C1C2CC35` (stereo not drawn) is 16.3 µM; for `C=CCn1c(N2CCCCCC2)nc2c1c(=O)[nH]c(=O)n2C` it is 30.1 µM; for `O=C(O)Cc1cccc(=O)c(O)c1C(=O)O` it is 8.19 µM. With `CCc1cc(=O)n2[nH]c(C)c(-c3ccccc3OC)c2n1` the figure was 4.38 µM; with `COCCNC(=O)c1ccc(CS(=O)(=O)c2c(Cl)cccc2Cl)o1`, 39.9 µM; with `Nc1cc(N)c(OCC(F)(F)F)cc1OCC(F)(F)F`, 9.47 µM.

For `CCCOc1ccc(Cc2nn3c(=O)/c(=C/c4ccco4)sc3nc2=O)cc1`, the IC50 is 1.5 µM.

Take `O=c1oc2c(O)c(O)cc3c(=O)oc4c(O)c(O)cc1c4c23`: the IC50 was 0.45 µM. Turning to `CC1C=CC=CC=CC=CC=CC=CC=CC(OC2OC(C)C(O)C(N)C2O)CC2OC(O)(CC(O)CC(O)C(O)CCC(O)CC(O)CC(=O)OC(C)C(C)C1O)CC(O)C2C(=O)O` (stereo not drawn), the IC50 is 0.87 µM.

Take `Cn1c(=O)c2c(ncn2CC(=O)N/N=C/C=C/c2ccco2)n(C)c1=O`: the IC50 was 6.39 µM. In the case of `CC1CCCCN1Cc1ccc(N(C)C)cc1` (stereo not drawn), the IC50 was 66.6 µM. Turning to `CCN(CC)c1ccc2oc(=O)c(C)nc2c1`, the IC50 is 2.87 µM. On to `Cc1c(NC(=O)c2cc(-c3cccs3)on2)c(=O)n(-c2ccccc2)n1C`, for which the IC50 was 39.9 µM. In the case of `O=C1C2C3C=CC(C3)C2C(=O)N1CNc1ccc(O)cc1` (stereo not drawn), the IC50 is 2.78 µM. With `O=C(NC(=S)Nc1cccc(S(=O)(=O)NC2=NCCC2)c1)c1cc(-c2ccco2)nc2ccccc12`, the IC50 was 8.99 µM.

Turning to `Nc1ccc(N(CCO)CCO)cc1`, the IC50 is 2.17 µM. For `COc1cc(C(=O)NCC(c2ccco2)N2CCCC2)ccc1OCc1c(C)noc1C` (stereo not drawn), the IC50 is 99.2 µM. In the case of `O=C1C(O)CC2c3ccccc3CC3(CCCC3)N12` (stereo not drawn), the IC50 is 50.6 µM. For the compound `COC(=O)c1cnn2c(C(F)(F)F)cc(-c3ccco3)nc12`, the IC50 was 7.16 µM.

Take `CC1=CN2C(=N)/C(=C/c3ccc([N+](=O)[O-])o3)C(=O)N=C2S1`: the IC50 is 2.91 µM. As to `O=[N+]([O-])c1cc(CN2CCN(c3cccc(C(F)(F)F)c3)CC2)c2cccnc2c1O`, the IC50 was 8.68 µM.

On to `CCc1c(C)sc(NC(=O)OC)c1C(=O)N1CCCCC1`, for which the IC50 is 42.7 µM.

On to `CCc1cc(C=NC2CCCCC2)c(O)s1`, for which the IC50 is 77.7 µM.

`C=CCn1c(O)c(C(CC)=Nc2ccc(N(C)C)cc2)c(=O)[nH]c1=O`: the IC50 was 57.6 µM. Regarding `COc1ccc(C2CC(=O)Nc3cc(C)c(C)cc32)c(OC)c1OC` (stereo not drawn), the IC50 was 63.5 µM. Turning to `CC1=C(O)C(=O)C=C2C1=CC=C1C2(C)CCC2(C)C3CC(C)(C(=O)O)CCC3(C)CCC12C` (stereo not drawn), the IC50 was 12.2 µM.

For `O=C(CCS(=O)(=O)c1ccc(Br)cc1)N1CCN(c2ccc(F)cc2)CC1`, the IC50 is 52.8 µM. Take `Cc1ccc(-c2c3c([nH]c(=S)c2C#N)CCCC3)o1`: the IC50 is 13.9 µM. Turning to `COC(Cc1nnc(SC)n1-c1ccc(Cl)cc1)OC`, the IC50 was 43 µM. Take `CCn1c2ccccc2c2cc(NC(=O)c3ccccc3[N+](=O)[O-])ccc21`: the IC50 is 14.7 µM.

On to `O=c1cc(OCc2ccccc2)cc[nH]1`, for which the 50% inhibitory concentration (IC50) was 3.1 µM. On to `CCN(CC)c1ccc(C(=C2C=CC(=[N+](CC)CC)C=C2)c2ccccc2)cc1`, for which the IC50 is 11.8 µM. The figure for `CNCc1ccccc1Sc1cc(O)ccc1O` is 3.46 µM.

Regarding `O=C1c2c(O)ccc(O)c2C(=O)c2c(NCCNCCO)ccc(NCCNCCO)c21`, the IC50 is 7.96 µM.

For the compound `O=C(NC(=S)N1CCCc2ccccc21)c1ccccc1`, the IC50 is 28.4 µM. With `Cc1ccc(SCCN2C(=O)NC(C)(C)C2=O)cc1` the figure was 7.32 µM. Turning to `COc1ccc2c(c1)CC1(CN2C)C(=O)NC(=O)N(c2ccc(C)cc2)C1=O` (stereo not drawn), the IC50 was 58.9 µM. `O=C1NC(=S)N/C1=C/c1ccc(-c2c(Br)cc([N+](=O)[O-])cc2Br)o1`: the half-inhibitory concentration (IC50) was 39 µM. With `CN(C)c1cc(Cl)c2nonc2c1N` the figure was 11.9 µM; with `O=C(COc1ccc(Cl)cc1)N1CCN(S(=O)(=O)c2ccc(Cl)cc2)CC1`, 50.7 µM. `Cc1ccc2c(c1)C1C=CCC1C(C(=O)O)N2` (stereo not drawn): the IC50 was 0.95 µM.

Regarding `CC(=O)c1sc(C(=O)O)c(-c2ccco2)c1-c1ccco1`, the IC50 is 9.78 µM. On to `O=c1nc2s/c(=C\c3ccco3)c(=O)n2nc1Cc1ccccc1`, for which the IC50 was 4.18 µM.

Take `COc1ccc(C2CC(=O)N3CN(c4ccc(C)c(Cl)c4)CSC3=C2C#N)cc1` (stereo not drawn): the IC50 was 81.2 µM. As for `Cc1ccc(Nc2ccc(N)cc2S(=O)(=O)O)cc1`, the IC50 is 32 µM.

With `c1coc(-c2nc3nc4ccccc4n3nc2-c2ccco2)c1`, the IC50 was 12.3 µM. The figure for `O=C(Nc1ccc(Cl)c(-c2nc3ccccc3[nH]2)c1)c1cccnc1` is 79.7 µM. For the compound `Cc1cc(C(=O)NNC(=O)/C=C/c2ccco2)c(C)o1`, the half-inhibitory concentration (IC50) was 13.3 µM. Consider `COC(=O)C1=C(C)NC(=O)/C1=C\c1ccco1`, for which the IC50 is 6.12 µM. In the case of `C=CCN(CC=C)C(=S)NC(=O)c1ccc([N+](=O)[O-])cc1`, the IC50 was 66.8 µM. For the compound `CN(C)c1ccc(O)c2c1CC1CC3[C@@H](N(C)C)C(=O)C(C(N)=O)=C(O)[C@]3(O)C(=O)C1=C2O` (stereo partly drawn), the IC50 was 1.07 µM.

As to `O=[N+]([O-])c1cc(-c2ccc(/C=N/c3nc4ccccn4c3-c3ccco3)o2)ccc1Cl`, the IC50 was 10 µM. In the case of `CC(C)c1ccc(/C=C/C(=O)N2CCc3ccccc3C2)cc1`, the IC50 was 17.9 µM.

Consider `Cc1ccc(/C=C2\SC(=S)N(c3cccnc3)C2=O)o1`, for which the IC50 is 6.87 µM. For `CCN(CC)S(=O)(=O)c1ccc(/C=C/C(=O)Nc2ccc(N3CCOCC3)cc2)cc1`, the IC50 is 55.7 µM. The figure for `CCN(CC)c1ccc(/C=N/n2c(C)cc(C)cc2=O)cc1` is 1.65 µM; for `NC(CO)C(=O)NNCc1ccc(O)c(O)c1O` (stereo not drawn) it is 1.49 µM. In the case of `CCOc1cccc(=O)c2c(C)oc(C)c12`, the IC50 was 6.16 µM. The figure for `COC(=O)CCC(=O)OC1(C)C(=O)C=C2C=C3CCCN3C=C2C1=O` (stereo not drawn) is 2.23 µM. Take `CN(C)c1ccc(Cc2cc3c(O)ccc(O)c3cc(Cc3ccc(N(C)C)cc3)c2=O)cc1`: the IC50 was 0.87 µM. Turning to `CC(C)c1ccc(N2C(=O)NC(=O)/C(=C\C=C\c3ccco3)C2=O)cc1`, the IC50 was 9.35 µM. In the case of `O=C1C(=Cc2ccco2)CCCC1=Cc1ccco1`, the IC50 was 12.1 µM.

Consider `Cc1ccc(NC(=O)CN2C(=O)N/C(=C/c3ccco3)C2=O)cc1`, for which the IC50 is 2 µM.

`Cc1cc(SCC(=O)N/N=C/c2ccc(O)c(O)c2O)c(C)cc1Br`: the IC50 is 13.3 µM. For `c1ccc2c(c1)NCC1CCCN21` (stereo not drawn), the IC50 is 38.1 µM. As for `O=C(NCCc1c[nH]c2ccccc12)c1ccc(S(=O)(=O)NCc2ccco2)cc1`, the IC50 was 33.3 µM.

As for `Oc1ccc(/C=C/c2cc(O)cc(O)c2)cc1`, the IC50 is 25.3 µM. For `c1cncc(-c2nnc3sc(-c4ccco4)nn23)c1`, the IC50 was 28.3 µM. On to `Cc1cc2nc(C)n(CCCNC(=O)Nc3ccc(F)cc3)c2cc1C`, for which the IC50 is 47.6 µM. In the case of `CCc1ccc2nc(N3CCN(C)CC3)c(C#N)cc2c1`, the IC50 is 33.8 µM.

Turning to `CC(C)(CS(=O)(=O)[O-])NC(=O)CC[N+](C)(C)CCO`, the IC50 was 1.5 µM.

Broadly, the IC50 is the concentration at which inhibition is half-maximal.
